Reference: patent publication US20060004088A1, “Furan derivatives for preventing and curing osteoporosis and pharmaceutical compositions containing the same” (OCT INC., priority 2002, published 2006)

Test system: osteoclast pregenitor cells
Assay: Inhibition rates of furan derivatives versus osteoclast formation (TRAP staining)
Format: cell-based, mice
Conditions: TRAP-positive multinucleated cells, untreated control set as 100%
Procedure: First, bone marrow cells were isolated, as follow. After sacrificing 7-9 week female mice by cervical dislocation, femur and tibia were excised aseptically while removing attached soft tissues. After cutting both ends of long bones, 1 ml of an enzyme solution, containing 0.1% collagenase (Gibco), 0.05% trypsin and 0.5 mM EDTA (Gibco), was injected to the bone marrow cavity at one end using a syringe with a 26-guage needle, and bone marrow was then collected. After shaking the recovered bone marrow for 30 min, bone marrow cells were collected, and cultured in α-minimum essential medium (α-MEM) supplemented with 10% FBS for 24 hrs. Then, non-adherent cells were collected, which are osteoclast pregenitors, aliquotted onto culture plates at a density of 2×10^5 cells per well, and cultured for 8 days in α-MEM supplemented with 20 ng/ml of macrophage-colony stimulating factor (M-CSF, Peprotech, USA) and 30 ng/ml RANKL (Peprotech, USA). During the 8 days of culturing, the cells were treated with the Compound 1. Thereafter, osteoclast formation was investigated by fixing the cultured cells and then carrying out TRAP staining, as described in the following Experimental Example 2.2. In addition, resorption activity of osteoclasts was investigated by measuring the absorption area after removing osteoclasts in cultures in calcium phosphate-coated plates, as described in Experimental Example 2.3, below.
After cell culture, the adherent cells were washed with PBS, and TRAP staining was performed, as follows. After being fixed with citrate-acetate-formaldehyde for 5 min, the cells were incubated for 1 hr in acetate buffer (prewarmed at 37° C., pH 5.0) containing naphthol AS-BI phosphate, fast Garnet GBC and 7 mM tartrate buffer (pH 5.0). TRAP-positive multinucleated cells having 3 or more nuclei were considered as osteoclasts.
Osteoclast pregenitor cells were isolated, and their differentiation to mature osteoclasts was induced, according to the same method as in the Experimental Example 2-1, while treated with each of the furan derivatives of the present invention. According to the same method as in the Experimental Example 2-2, TRAP staining performed, and TRAP-positive multinucleated cells were counted. An inhibition rate of each furan derivative against osteoclast formation was expressed as percentage, wherein the number of stained cells in a control not treated the furan derivative was arbitrarily set as 100% (Tables 14 to 16).

SMILES | Inhibition rate against osteoclast formation, % (0.1 μM) | Inhibition rate against osteoclast formation, % (1 μM) | Inhibition rate against osteoclast formation, % (10 μM)
O=Cc1ccc(COC(=O)Cc2ccccc2)o1 [Compound 32] | 0% | 23.3% | 50%
O=Cc1ccc(COC(=O)Cc2ccc(F)cc2F)o1 [Compound 39] | 0% | 10% | 56.67%
O=C(O)c1ccc(COc2ccccc2Br)o1 [Compound 108] | 0% | 0% | 14.72%
COc1ccccc1NC(=O)c1ccc(COc2ccc(C(C)(C)C)cc2)o1 [Compound 189] | 0% | 0% | 48.99%
CCCc1ccc(OCc2ccc(C(=O)Nc3ccc(F)cc3F)o2)c(OC)c1 [Compound 176] | 0% | 0% | 15.56%
O=Cc1ccc(COC(=O)Nc2ccc(Br)cc2)o1 [Compound 50] | 0% | 10% | 0%
COC(=O)c1ccc(COc2ccc(Cl)c(C)c2)o1 [Compound 75] | 0% | 0% | 0.78%
CCc1cccc(NC(=O)c2ccc(COc3ccc(F)cc3)o2)c1 [Compound 163] | 0% | 0% | 51.2%
O=Cc1ccc(COC(=O)Cc2cccc(F)c2)o1 [Compound 37] | 0% | 10% | 6.67%
Cc1cccc(C)c1NC(=O)c1ccc(COc2ccc(Cl)cc2)o1 [Compound 179] | 0% | 0% | 34.81%
COc1ccc(NC(=O)c2ccc(COc3ccc(Cl)c(C)c3)o2)cc1 [Compound 150] | 0% | 0% | 19.12%
COC(=O)c1ccc(CNC(C)(C)C)o1 [Compound 91] | 0% | 0% | 9.89%
Cc1ccc(F)c(NC(=O)c2ccc(COc3ccccc3[N+](=O)[O-])o2)c1 [Compound 158] | 0% | 0% | 23.57%
COc1ccc(NC(=O)c2ccc(COc3ccccc3Br)o2)c(OC)c1 [Compound 188] | 0% | 0% | 7.6%
CCCc1ccc(OCc2ccc(C(=O)Nc3ccc(OC)c(OC)c3)o2)cc1 [Compound 164] | 0% | 0% | 30.52%
COc1ccccc1OCc1ccc(C(=O)OC(C)C)o1 [Compound 94] | 0% | 0% | 5.9%
CC(C)(C)NC(=O)c1ccc(COCC(F)(F)F)o1 [Compound 127] | 0% | 0% | 13.82%
O=C(c1ccc(COc2cc(Cl)ccc2Cl)o1)N1CCCCCC1 [Compound 133] | 0% | 0% | 0.5%
O=C(Nc1cc(F)ccc1F)c1ccc(COc2cccc(Cl)c2)o1 [Compound 151] | 0% | 0% | 19.8%
